Data reported in patent US20030162803A1, “Anhydrovinblastine for the treatment of cancer” (priority 1997, published 2003).
“Also recorded” adds a separate entry of the source.

How the values were obtained:
[1] = Phase I clinical trial, pharmacokinetics (serum, HPLC, 2-compartment model); assay type: in vivo, human patients; set-up: AUC: unit not given here
Method: AHVB blood serum concentrations were measured at 0, 0.33, 0.67, 1, 1.25, 1.5, 2, 4, 6, 8, 12, 24, 48, and 72 hrs after the start of each infusion. […] The serum extracts were assayed using high pressure liquid chromatography (HPLC) and were fit to a 2-compartment pharmacokinetic model for determination of pharmacokinetic parameters (see Table 5).
There appears to be no significant change in clearance observed between smaller and larger doses (p>0.2 by linear regression). […] Similarly, AUC appeared to increase linearly with dose (r^2=0.82, p<0.05) (FIG. 12).

[2] = Phase I clinical trial, toxicity and MTD; assay type: in vivo, human patients
Method: Patients had normal bone marrow, hepatic and renal function. Twenty-four patients were treated with escalating doses of AHVB, administered as a 1 hour infusion every 3 weeks. The 24 patients comprised 12 male and 12 female patients with a median age of 60 years (range 27-75 years). Twenty-one of the 24 patients were evaluable. Diagnoses were non-small cell lung cancer (NSCLC), colorectal cancer, soft tissue sarcoma, pancreatic cancer, breast cancer and metastatic neuroendocrine cancer in 11, 5, 4, 1, 1, and 1 patient(s), respectively. […] A total of 51 courses were administered at doses of 2.5, 5, 10,16.5, 21,25 and 30 mg/m^2 to 1,3, 1,3, 6, 6 and 1 patient(s), respectively (see Table 4).
The first patient was entered in the trial at the 2.5 mg/m^2 dose level. […] Five patients were enrolled at the 16.5 mg/m^2 dose level because two patients were not evaluable and had to be replaced. […] Six patients were enrolled at the 25 mg/m^2 dose level. […] This dose level, therefore, exceeded the MTD.
Seven patients were enrolled at the 21 mg/m^2 dose level, but only 6 were evaluable for toxicity due to one patient developing Grade 2 hypertension, headache, nausea and vomiting at the start of the infusion, which recurred on rechallenge. This patient received only 15 ml of the drug solution and, therefore, was not evaluable to assess toxicity. […] The nausea and vomiting observed at the 21 mg/m^2 dose level was a DLT. It was determined that the 21 mg/m^2 dose is the MTD.

CCC1=C[C@H]2CN(CCc3c([nH]c4ccccc34)[C@@](C(=O)OC)(c3cc4c(cc3OC)N(C)[C@H]3[C@@](O)(C(=O)OC)[C@H](OC(C)=O)[C@]5(CC)C=CCN6CC[C@]43[C@@H]65)C2)C1 [AHVB, 3′,4′-anhydrovinblastine]
pharmacokinetics, dose linearity ([1]; 2.5-30 mg/m^2, 1 hour infusion): linear | T1/2 al ([1]; All Data, N 20, Max): 23.6 min | T1/2 be ([1]; All Data, N 20, Max): 63.10 h | T1/2 al (alpha half-life) ([1]; All Data, N 20, Mean): 11.4 min | T1/2 be (beta half-life) ([1]; All Data, N 20, Mean): 20.8 h | T1/2 al ([1]; All Data, N 20, Median): 10.2 min | T1/2 be ([1]; All Data, N 20, Median): 17.60 h | T1/2 al ([1]; All Data, N 20, Min): 4.2 min | T1/2 be ([1]; All Data, N 20, Min): 6.63 h | A ([1]; dose 2.5 mg/m^2, N 1, Value): 134.71 ng/mL | AUC ([1]; dose 2.5 mg/m^2, N 1, Value): 71.64 | B ([1]; dose 2.5 mg/m^2, N 1, Value): 5.03 ng/mL | Cmax ([1]; dose 2.5 mg/m^2, N 1, Value): 28.23 ng/mL | T1/2 al ([1]; dose 2.5 mg/m^2, N 1, Value): 7.2 min | T1/2 be ([1]; dose 2.5 mg/m^2, N 1, Value): 6.63 h | A ([1]; dose 5 mg/m^2, N 3, Max): 531.52 ng/mL | AUC ([1]; dose 5 mg/m^2, N 3, Max): 793.39 | B ([1]; dose 5 mg/m^2, N 3, Max): 9.73 ng/mL | Cmax ([1]; dose 5 mg/m^2, N 3, Max): 62.40 ng/mL | T1/2 al ([1]; dose 5 mg/m^2, N 3, Max): 10.2 min | T1/2 be ([1]; dose 5 mg/m^2, N 3, Max): 63.13 h | A ([1]; dose 5 mg/m^2, N 3, Mean): 281.82 ng/mL | AUC ([1]; dose 5 mg/m^2, N 3, Mean): 571.75 | B ([1]; dose 5 mg/m^2, N 3, Mean): 8.04 ng/mL | Cmax ([1]; dose 5 mg/m^2, N 3, Mean): 51.37 ng/mL | T1/2 al ([1]; dose 5 mg/m^2, N 3, Mean): 8.4 min | T1/2 be ([1]; dose 5 mg/m^2, N 3, Mean): 44.36 h | A ([1]; dose 5 mg/m^2, N 3, Median): 178.39 ng/mL | AUC ([1]; dose 5 mg/m^2, N 3, Median): 639.67 | B ([1]; dose 5 mg/m^2, N 3, Median): 8.11 ng/mL | Cmax ([1]; dose 5 mg/m^2, N 3, Median): 53.07 ng/mL | T1/2 al ([1]; dose 5 mg/m^2, N 3, Median): 10.2 min | T1/2 be ([1]; dose 5 mg/m^2, N 3, Median): 42.41 h | A ([1]; dose 5 mg/m^2, N 3, Min): 135.55 ng/mL | AUC ([1]; dose 5 mg/m^2, N 3, Min): 282.20 | B ([1]; dose 5 mg/m^2, N 3, Min): 6.27 ng/mL | Cmax ([1]; dose 5 mg/m^2, N 3, Min): 38.65 ng/mL | T1/2 al ([1]; dose 5 mg/m^2, N 3, Min): 4.2 min | T1/2 be ([1]; dose 5 mg/m^2, N 3, Min): 27.54 h | A ([1]; dose 10 mg/m^2, N 1, Value): 109.85 ng/mL | AUC ([1]; dose 10 mg/m^2, N 1, Value): 247.19 | B ([1]; dose 10 mg/m^2, N 1, Value): 11.49 ng/mL | Cmax ([1]; dose 10 mg/m^2, N 1, Value): 48.57 ng/mL | T1/2 al ([1]; dose 10 mg/m^2, N 1, Value): 15 min | T1/2 be ([1]; dose 10 mg/m^2, N 1, Value): 12.50 h | A ([1]; dose 16.5 mg/m^2, N 5, Max): 816.42 ng/mL | AUC ([1]; dose 16.5 mg/m^2, N 5, Max): 1791.22 | B ([1]; dose 16.5 mg/m^2, N 5, Max): 34.16 ng/mL | Cmax ([1]; dose 16.5 mg/m^2, N 5, Max): 231.52 ng/mL | T1/2 al ([1]; dose 16.5 mg/m^2, N 5, Max): 23.4 min | T1/2 be ([1]; dose 16.5 mg/m^2, N 5, Max): 33.52 h | A ([1]; dose 16.5 mg/m^2, N 5, Mean): 509.47 ng/mL | AUC ([1]; dose 16.5 mg/m^2, N 5, Mean): 824.58 | B ([1]; dose 16.5 mg/m^2, N 5, Mean): 22.50 ng/mL | Cmax ([1]; dose 16.5 mg/m^2, N 5, Mean): 163.03 ng/mL | T1/2 al ([1]; dose 16.5 mg/m^2, N 5, Mean): 13.2 min | T1/2 be ([1]; dose 16.5 mg/m^2, N 5, Mean): 21.35 h | A ([1]; dose 16.5 mg/m^2, N 5, Median): 478.82 ng/mL | AUC ([1]; dose 16.5 mg/m^2, N 5, Median): 541.21 | B ([1]; dose 16.5 mg/m^2, N 5, Median): 21.87 ng/mL | Cmax ([1]; dose 16.5 mg/m^2, N 5, Median): 171.48 ng/mL | T1/2 al ([1]; dose 16.5 mg/m^2, N 5, Median): 12 min | T1/2 be ([1]; dose 16.5 mg/m^2, N 5, Median): 21.82 h | A ([1]; dose 16.5 mg/m^2, N 5, Min): 263.49 ng/mL | AUC ([1]; dose 16.5 mg/m^2, N 5, Min): 511.26 | B ([1]; dose 16.5 mg/m^2, N 5, Min): 6.64 ng/mL | Cmax ([1]; dose 16.5 mg/m^2, N 5, Min): 96.35 ng/mL | T1/2 al ([1]; dose 16.5 mg/m^2, N 5, Min): 7.8 min | T1/2 be ([1]; dose 16.5 mg/m^2, N 5, Min): 8.21 h | A ([1]; dose 21 mg/m^2, N 3, Max): 1197.78 ng/mL | AUC ([1]; dose 21 mg/m^2, N 3, Max): 1402.11 | B ([1]; dose 21 mg/m^2, N 3, Max): 28.54 ng/mL | Cmax ([1]; dose 21 mg/m^2, N 3, Max): 340.46 ng/mL | T1/2 al ([1]; dose 21 mg/m^2, N 3, Max): 23.4 min | T1/2 be ([1]; dose 21 mg/m^2, N 3, Max): 30.50 h | A ([1]; dose 21 mg/m^2, N 3, Mean): 774.37 ng/mL | AUC ([1]; dose 21 mg/m^2, N 3, Mean): 1094.91 | B ([1]; dose 21 mg/m^2, N 3, Mean): 25.92 ng/mL | Cmax ([1]; dose 21 mg/m^2, N 3, Mean): 257.21 ng/mL | T1/2 al ([1]; dose 21 mg/m^2, N 3, Mean): 15.6 min | T1/2 be ([1]; dose 21 mg/m^2, N 3, Mean): 22.88 h | A ([1]; dose 21 mg/m^2, N 3, Median): 802.43 ng/mL | AUC ([1]; dose 21 mg/m^2, N 3, Median): 964.03 | B ([1]; dose 21 mg/m^2, N 3, Median): 24.72 ng/mL | Cmax ([1]; dose 21 mg/m^2, N 3, Median): 252.10 ng/mL | T1/2 al ([1]; dose 21 mg/m^2, N 3, Median): 12 min | T1/2 be ([1]; dose 21 mg/m^2, N 3, Median): 19.15 h | A ([1]; dose 21 mg/m^2, N 3, Min): 322.90 ng/mL | AUC ([1]; dose 21 mg/m^2, N 3, Min): 918.58 | B ([1]; dose 21 mg/m^2, N 3, Min): 24.50 ng/mL | Cmax ([1]; dose 21 mg/m^2, N 3, Min): 179.07 ng/mL | T1/2 al ([1]; dose 21 mg/m^2, N 3, Min): 11.4 min | T1/2 be ([1]; dose 21 mg/m^2, N 3, Min): 19.00 h | A ([1]; dose 25 mg/m^2, N 6, Max): 1952.78 ng/mL | AUC ([1]; dose 25 mg/m^2, N 6, Max): 1202.01 | B ([1]; dose 25 mg/m^2, N 6, Max): 48.76 ng/mL | Cmax ([1]; dose 25 mg/m^2, N 6, Max): 368.79 ng/mL | T1/2 al ([1]; dose 25 mg/m^2, N 6, Max): 21.6 min | T1/2 be ([1]; dose 25 mg/m^2, N 6, Max): 16.29 h | A ([1]; dose 25 mg/m^2, N 6, Mean): 1122.91 ng/mL | AUC ([1]; dose 25 mg/m^2, N 6, Mean): 764.83 | B ([1]; dose 25 mg/m^2, N 6, Mean): 34.51 ng/mL | Cmax ([1]; dose 25 mg/m^2, N 6, Mean): 273.43 ng/mL | T1/2 al ([1]; dose 25 mg/m^2, N 6, Mean): 10.8 min | T1/2 be ([1]; dose 25 mg/m^2, N 6, Mean): 10.68 h | A ([1]; dose 25 mg/m^2, N 6, Median): 1062.6 ng/mL | AUC ([1]; dose 25 mg/m^2, N 6, Median): 750.85 | B ([1]; dose 25 mg/m^2, N 6, Median): 35.06 ng/mL | Cmax ([1]; dose 25 mg/m^2, N 6, Median): 287.71 ng/mL | T1/2 al ([1]; dose 25 mg/m^2, N 6, Median): 9.6 min | T1/2 be ([1]; dose 25 mg/m^2, N 6, Median): 10.54 h | A ([1]; dose 25 mg/m^2, N 6, Min): 379.79 ng/mL | AUC ([1]; dose 25 mg/m^2, N 6, Min): 436.85 | B ([1]; dose 25 mg/m^2, N 6, Min): 20.78 ng/mL | Cmax ([1]; dose 25 mg/m^2, N 6, Min): 108.52 ng/mL | T1/2 al ([1]; dose 25 mg/m^2, N 6, Min): 6.6 min | T1/2 be ([1]; dose 25 mg/m^2, N 6, Min): 6.73 h | A ([1]; dose 30 mg/m^2, N 1, Value): 3559.02 ng/mL | AUC ([1]; dose 30 mg/m^2, N 1, Value): 1797.92 | B ([1]; dose 30 mg/m^2, N 1, Value): 36.71 ng/mL | Cmax ([1]; dose 30 mg/m^2, N 1, Value): 571.08 ng/mL | T1/2 al ([1]; dose 30 mg/m^2, N 1, Value): 6 min | T1/2 be ([1]; dose 30 mg/m^2, N 1, Value): 23.83 h | toxicities ([2]; 5 mg/m^2, 1 hour IV infusion every 3 weeks): Grade 2 anorexia, hyperamylasemia, and increased serum creatinine; also recorded: One patient treated developed Grade 2 elevated amylase,; also recorded: elevated creatine and anorexia requiring an additional 2 | toxicities ([2]; 10 mg/m^2, 1 hour IV infusion every 3 weeks): One patient treated with minimal toxicity | toxicities ([2]; 16.5 mg/m^2, 1 hour IV infusion every 3 weeks): Grade 2 toxicities including infusional hypertension, anemia and dizziness; also recorded: replaced. The next patient showed Grade 2 toxicities; also recorded: two patients had minimal toxicities | toxicities ([2]; 21 mg/m^2, 1 hour IV infusion every 3 weeks): Grade 3 nausea and vomiting and Grade 2 constipation; also recorded: patient exhibited Grade 3 nausea and vomiting. This does | toxicities ([2]; 25 mg/m^2, 1 hour IV infusion every 3 weeks): DLTs including Grade 4 level constipation and Grade 3 nausea and vomiting; also recorded: grade 4 constipation, Grade 3 tumor pain, nausea, vomiting,; also recorded: anemia and Grade 4 neutropenia (1 patient) | toxicities ([2]; 30 mg/m^2, 1 hour IV infusion every 3 weeks): One patient treated developed Grade 3 leukopenia. | MTD (maximum-tolerated dose) ([2]; 1 hour IV infusion every 3 weeks, patients): 21 mg/m^2
